Experimental data as given in patent publication US9409952B2, “Peptide-compound cyclization method” (Chugai Seiyaku Kabushiki Kaisha, priority 2011, dated 2016).
Like-named read-outs stand apart in the source and are kept apart here. Starred links: 1 amine or outer side, 2 acyl side, 3 side chain; linkers in the order of their positions; H or OH if unused. Positions of bridges follow the written chain, without caps; N, C: chain ends. Non-standard residues stand in square brackets, D forms with d. Residues, ends and D or L forms follow the SMILES beside them. *: point of attachment. Phe(4-CF3) = N[C@@H](Cc1ccc(C(F)(F)F)cc1)C(=O)O; NMePhe(3-Cl) = CN[C@@H](Cc1cccc(Cl)c1)C(=O)O; NMeF = CN[C@@H](Cc1ccccc1)C(=O)O; NMeGABA = CN(CCCC(=O)[*:2])[*:1]; NMeI = CC[C@H](C)[C@H](NC)C(=O)O; NMeβAla = CN(CCC(=O)[*:2])[*:1]; NMeL = CN[C@@H](CC(C)C)C(=O)O; NMeV = CN[C@H](C(=O)O)C(C)C; NMeA = CN[C@@H](C)C(=O)O; Piperidide = C1CCN(*)CC1; dNMeA = CN[C@H](C)C(=O)O; β3hA = C[C@H](N)CC(=O)O; Sar = CNCC(=O)O; tBu = CC(C)(C)*

Columns and labels:
[1] = Metabolic stability in human hepatic microsome; type: in vitro ADME; conditions: microsomes
[2] = PAMPA (parallel artificial membrane permeability assay); type: in vitro ADME; conditions: for Papp at 18 hours, 50 µM: PAMPA
Summary of the method: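 Artificial membrane was 10% (w/v) egg lecithin plus 0.5% (w/v) cholesterol in dodecane on a PVDF filter. A 10 mM DMSO stock was added at 0.5% (v/v) to donor buffer (50 mM MOPSO, pH 6.5, 5.0% glycocholic acid). After 18 h at 37 °C, LC/MS or LC/UV gave donor and acceptor levels for Pe.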

[3] = pH 7.4, human hepatic microsome, NADPH(+), read-out: CL NADPH(+)
[4] = membrane permeation rate (Pe), 50 mM MOPSO buffer pH 6.5 with 5.0% glycocholic acid, 37° C., 18 hours, read-out: iPAMPA Pe

SMILES	microsomal CLint at 1 uM [1, 3]	Papp at 18 hours, 50 µM [2, 4]	microsomal CLint at 1 uM ([1]; human, pH 7.4, CL NADPH(+))	Papp at 18 hours, 50 µM ([2]; pH 6.5)	iPAMPA Pe ([2]; membrane permeation rate (Pe), 50 mM MOPSO buffer pH 6.5 with 5.0% glycocholic acid, 37° C., 18 hours)
CC(C)C[C@H]1C(=O)N[C@H](C(=O)N2CCCCC2)CC(=O)N(C)[C@@H](C)C(=O)N(C)[C@@H](Cc2ccccc2)C(=O)N(C)[C@@H](C)C(=O)N[C@@H]([C@@H](C)O)C(=O)N(C)[C@@H](C)C(=O)N[C@@H](Cc2ccccc2)C(=O)N(C)[C@@H](C)C(=O)N[C@@H](C)C(=O)N(C)[C@@H](C)C(=O)N1C [DP-422] ([NMeA][NMeF][NMeA]T[NMeA]F[NMeA]A[NMeA][NMeL]D-Piperidide; lactam N-11)	26 µL/min/mg	3.8 ×10⁻⁶ cm/s			
CC(C)C[C@H]1C(=O)N(C)[C@@H](CC(C)C)C(=O)N[C@H](C(=O)N2CCCCC2)CC(=O)N(C)[C@@H](C)C(=O)N(C)[C@@H](Cc2ccccc2)C(=O)N(C)[C@@H](CC(C)C)C(=O)N[C@@H]([C@@H](C)O)C(=O)N1C [DP-679] ([NMeA][NMeF][NMeL]T[NMeL][NMeL]D-Piperidide; lactam N-7)	342 µL/min/mg	25 ×10⁻⁶ cm/s			
CC[C@H](C)[C@H]1C(=O)N(C)[C@@H](CC(C)C)C(=O)N[C@@H](Cc2ccccc2)C(=O)N[C@@H]([C@@H](C)O)C(=O)N[C@@H](CC(C)C)C(=O)N(C)[C@@H](Cc2ccccc2)C(=O)N(C)[C@@H](C(C)C)C(=O)N[C@H](C(=O)N(C)CC(=O)N[C@@H](C)C(=O)N2CCCCC2)CC(=O)N[C@H](C)C(=O)N[C@@H](C)C(=O)N1C [DP-672] ([dA]A[NMeI][NMeL]FTL[NMeF][NMeV]D[Sar]A-Piperidide; lactam N-10)	72 µL/min/mg	13 ×10⁻⁶ cm/s			
CC(C)C[C@H]1C(=O)N[C@@H]([C@@H](C)O)C(=O)N[C@H](C(=O)N(C)[C@@H](Cc2ccccc2)C(=O)N(C)[C@@H](Cc2ccccc2)C(=O)N[C@@H](C)C(=O)N2CCCCC2)CC(=O)N(C)CCCC(=O)N(C)[C@@H](C)C(=O)N(C)[C@@H](Cc2ccccc2)C(=O)N[C@@H](C(C)C)C(=O)N(C)[C@@H](CC(C)C)C(=O)N(C)CC(=O)N1C [DP-404] ([NMeGABA][NMeA][NMeF]V[NMeL][Sar][NMeL]TD[NMeF][NMeF]A-Piperidide; lactam N-9)	107 µL/min/mg	20 ×10⁻⁶ cm/s			
CC[C@H](C)[C@@H]1NC(=O)[C@H](CC(C)C)N(C)C(=O)CN(C)C(=O)[C@H]([C@@H](C)O)NC(=O)[C@H](C)N(C)C(=O)C[C@@H](C(=O)N(C)[C@@H](C)C(=O)N[C@@H](CC(C)C)C(=O)N[C@H](C(=O)N(C)[C@@H](C)C(=O)N[C@@H](C)C(=O)N2CCCCC2)C(C)C)NC(=O)[C@H](CC(C)C)N(C)C(=O)[C@H](Cc2ccccc2)N(C)C(=O)[C@H](CC(C)C)N(C)C1=O [DP-659] ([NMeA]T[Sar][NMeL]I[NMeL][NMeF][NMeL]D[NMeA]LV[NMeA]A-Piperidide; lactam N-9)	13 µL/min/mg	22 ×10⁻⁶ cm/s			
CC(C)C[C@H]1C(=O)N[C@H](C(=O)N2CCCCC2)CC(=O)N(C)CC(=O)N[C@@H]([C@@H](C)O)C(=O)N(C)[C@@H](C)C(=O)N[C@@H](COC(C)(C)C)C(=O)N(C)[C@@H](Cc2ccccc2)C(=O)N1C [DP-531] ([Sar]T[NMeA]S(tBu)[NMeF][NMeL]D-Piperidide; lactam N-7)	42 µL/min/mg	5.8 ×10⁻⁶ cm/s			
CC[C@H](C)[C@H]1C(=O)N[C@@H](C)C(=O)N[C@H](C(=O)N2CCCCC2)CC(=O)N[C@H](C(C)C)C(=O)N[C@@H](Cc2ccccc2)C(=O)N(C)[C@@H](C(C)C)C(=O)N(C)[C@@H](C)C(=O)N[C@@H]([C@@H](C)O)C(=O)N(C)CC(=O)N(C)[C@@H](CC(C)C)C(=O)N1C [DP-254] ([dV]F[NMeV][NMeA]T[Sar][NMeL][NMeI]AD-Piperidide; lactam N-10)	13 µL/min/mg	3.5 ×10⁻⁶ cm/s			
CC[C@H](C)[C@@H]1NC(=O)[C@H](Cc2ccccc2)NC(=O)[C@H](CC(C)C)NC(=O)[C@H](CC(C)C)NC(=O)[C@H](C)NC(=O)C[C@@H](C(=O)N2CCCCC2)NC(=O)[C@H](CC(C)C)N(C)C(=O)[C@H](Cc2ccccc2)NC(=O)[C@H](CC(C)C)NC(=O)CNC(=O)[C@H]([C@@H](C)O)NC1=O [DP-513] (ALLFITGLF[NMeL]D-Piperidide; lactam N-11)	184 µL/min/mg	30 ×10⁻⁶ cm/s			
CC(C)C[C@H]1C(=O)N[C@H](C(=O)N(C)[C@@H](Cc2ccccc2)C(=O)N[C@@H](C)C(=O)N2CCCCC2)CC(=O)N(C)CCC(=O)N[C@@H]([C@@H](C)O)C(=O)N(C)[C@@H](C)C(=O)N(C)[C@@H](CC(C)C)C(=O)N[C@@H](C(C)C)C(=O)N(C)[C@@H](Cc2ccccc2)C(=O)N[C@@H](Cc2ccccc2)C(=O)N1C [DP-379] ([NMeβAla]T[NMeA][NMeL]V[NMeF]F[NMeL]D[NMeF]A-Piperidide; lactam N-9)	236 µL/min/mg	41 ×10⁻⁶ cm/s			
CC(C)C[C@H]1C(=O)N[C@@H]([C@@H](C)O)C(=O)N(C)[C@@H](Cc2ccccc2)C(=O)N(C)[C@@H](CC(C)C)C(=O)NCC(=O)N(C)[C@@H](C(C)C)C(=O)N[C@@H](Cc2ccccc2)C(=O)N[C@H](C(=O)N(C)[C@@H](Cc2ccccc2)C(=O)N[C@@H](C)C(=O)N2CCCCC2)CC(=O)N(C)CC(=O)N[C@@H](C(C)C)C(=O)N1C [DP-304] ([Sar]V[NMeL]T[NMeF][NMeL]G[NMeV]FD[NMeF]A-Piperidide; lactam N-10)			212 µL/min/mg	35 ×10⁻⁶ cm/s	
CC[C@H](C)[C@H]1C(=O)N[C@@H]([C@@H](C)O)C(=O)N(C)CC(=O)N(C)[C@@H](CC(C)C)C(=O)N[C@H](C(=O)N2CCCCC2)CC(=O)N(C)[C@H](C)C(=O)N[C@@H](CC(C)C)C(=O)N(C)[C@@H](CC(C)C)C(=O)N(C)[C@@H](Cc2ccccc2)C(=O)N[C@@H](C)C(=O)N(C)[C@@H](Cc2ccccc2)C(=O)N1C [DP-105] ([dNMeA]L[NMeL][NMeF]A[NMeF][NMeI]T[Sar][NMeL]D-Piperidide; lactam N-11)			60 µL/min/mg	45 ×10⁻⁶ cm/s	
CC(C)C[C@@H]1NC(=O)[C@H](CC(C)C)N(C)C(=O)[C@H](C)NC(=O)[C@H](C(C)C)N(C)C(=O)[C@H](Cc2ccccc2)NC(=O)CN(C)C(=O)[C@H]([C@@H](C)O)NC(=O)[C@H](C)N(C)C(=O)[C@H](CC(C)C)N(C)C(=O)[C@@H](C)NC(=O)C[C@@H](C(=O)N2CCCCC2)NC1=O [DP-95] ([dA][NMeL][NMeA]T[Sar]F[NMeV]A[NMeL]LD-Piperidide; lactam N-11)	19 µL/min/mg	7.3 ×10⁻⁶ cm/s			
CC(C)C[C@H]1C(=O)N(C)[C@@H](C)C(=O)N[C@H](C(=O)N(C)[C@@H](Cc2ccccc2)C(=O)N[C@@H](C)C(=O)N2CCCCC2)CC(=O)N(C)[C@@H](C)C(=O)N(C)[C@@H](Cc2ccccc2)C(=O)N(C)[C@@H](C)C(=O)N[C@@H]([C@@H](C)O)C(=O)N(C)[C@@H](C)C(=O)N[C@@H](C(C)C)C(=O)N1C [DP-357] ([NMeA][NMeF][NMeA]T[NMeA]V[NMeL][NMeA]D[NMeF]A-Piperidide; lactam N-9)	56 µL/min/mg	14 ×10⁻⁶ cm/s			
CC(C)C[C@H]1C(=O)N(C)[C@@H](CC(C)C)C(=O)N[C@@H]([C@@H](C)O)C(=O)N(C)[C@@H](Cc2cccc(Cl)c2)C(=O)NCC(=O)N(C)[C@@H](C(C)C)C(=O)N[C@@H](Cc2ccc(C(F)(F)F)cc2)C(=O)N[C@@H](C)CC(=O)N(C)CCC(=O)N[C@@H](COC(C)(C)C)C(=O)N1C [DP-809] (cyclo(G[NMeV][Phe(4-CF3)][β3hA][NMeβAla]S(tBu)[NMeL][NMeL]T[NMePhe(3-Cl)]))	201 µL/min/mg				7.0E−05
